According to patent US11578087B2, “Oxaborole esters and uses thereof” (priority 2016, dated 2023):

What was measured:
[1] = tested on: IL3000 T. congolense (drug sensitive) strain; assay: In vitro Alamar Blue 72 h drug sensitivity assay for T. congolense; assay type: cell-based, Trypanosoma congolense; details: Trypanosoma congolense, 72 h, bloodstream form, 69 h + 3 h Resazurin, 34° C., read-out: IC50: I Org. Growth T. congolense 3 d
Outline: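 Bloodstream-form trypanosomes in HMI medium with 20% bovine serum were exposed to compounds for 69 h at 34° C, 5% CO2, then resazurin for another 3 h. Fluorescence read at ex 536/em 588 nm; IC50 from 11-point sigmoidal dose-response curves, at least three independent runs.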

[2] = tested on: T. cruzi amastigote (Td Tomato-modified) in Vero cells; assay: In vitro IC50 measurement of T. cruzi amastigote killing using Td Tomato-modified T. cruzi; assay type: cell-based; details: Trypanosoma cruzi, 72 h, fluorescence, read-out: IC50: I Org. amastigote Growth T. cruzi 3 d
Outline: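 Vero cells infected with Td Tomato-expressing T. cruzi, treated with compound at 5 uM to 5 nM final, incubated 72 h at 37 °C. Fluorescence (Ex 544/Em 612 nm) read at Day 0 and Day 3, Day 0 subtracted; IC50 and IC90 by nonlinear regression.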

| Structure (SMILES) | IC50 [1] | IC50 [2] |
| --- | --- | --- |
| Cc1c(C(=O)N[C@H](C(=O)OCc2ccc(CN3CCN(C)CC3)cc2)C(C)C)ccc2c1B(O)OC2 [Example 6-111, 4-((4-Methylpiperazin-1-yl)methyl)benzyl (1-hydroxy-7-methyl-1,3-dihydrobenzo[c][1,2]oxaborole-6-carbonyl)-L-valinate] | 0.51 to 9.99 nM | ≤ 20 nM |
| Cc1c(C(=O)N[C@H](C(=O)OC(C)C)C(C)C)ccc2c1B(O)OC2 [Example 6-112, Isopropyl (1-hydroxy-7-methyl-1,3-dihydrobenzo[c][1,2]oxaborole-6-carbonyl)-L-valinate] | 0.51 to 9.99 nM | ≤ 20 nM |
| Cc1c(C(=O)N[C@H](C(=O)OCc2cccc(CN3CCCC3)c2)C(C)C)ccc2c1B(O)OC2 [Example 6-113, 3-(Pyrrolidin-1-ylmethyl)benzyl (1-hydroxy-7-methyl-1,3-dihydrobenzo[c][1,2]oxaborole-6-carbonyl)-L-valinate] | < 0.5 nM | ≤ 20 nM |
| Cc1c(C(=O)N[C@H](C(=O)OCC2CCN(C)CC2)C(C)C)ccc2c1B(O)OC2 [Example 6-114, (1-Methylpiperidin-4-yl)methyl (1-hydroxy-7-methyl-1,3-dihydrobenzo[c][1,2]oxaborole-6-carbonyl)-L-valinate] | 0.51 to 9.99 nM | 21 to 999 nM |
| Cc1c(C(=O)N[C@H](C(=O)OCc2cccc(CN3CCNCC3)c2)C(C)C)ccc2c1B(O)OC2 [Example 6-117, 3-(Piperazin-1-ylmethyl)benzyl (1-hydroxy-7-methyl-1,3-dihydrobenzo[c][1,2]oxaborole-6-carbonyl)-L-valinate] | 10 to 5000 nM | ≥ 1000 nM |
| Cc1c(C(=O)N(C)[C@H](C(=O)OCc2ccc(F)cc2)C(C)C)ccc2c1B(O)OC2 [Example 6-118, 4-Fluorobenzyl N-(1-hydroxy-7-methyl-1,3-dihydrobenzo[c][1,2]oxaborole-6-carbonyl)-N-methyl-L-valinate] | 10 to 5000 nM | ≥ 1000 nM |
| Cc1c(C(=O)N[C@H](C(=O)OCC2CCCCC2)C(C)C)ccc2c1B(O)OC2 [Example 6-119, Cyclohexylmethyl (1-hydroxy-7-methyl-1,3-dihydrobenzo[c][1,2]oxaborole-6-carbonyl)-L-valinate] | < 0.5 nM | ≤ 20 nM |
| Cc1c(C(=O)N[C@H](C(=O)OCc2cncs2)C(C)C)ccc2c1B(O)OC2 [Example 6-120, Thiazol-5-ylmethyl (1-hydroxy-7-methyl-1,3-dihydrobenzo[c][1,2]oxaborole-6-carbonyl)-L-valinate] | 0.51 to 9.99 nM | 21 to 999 nM |
| Cc1c(C(=O)N[C@H](C(=O)OCCc2ccc(F)cc2)C(C)C)ccc2c1B(O)OC2 [Example 6-121, 4-Fluorophenethyl (1-hydroxy-7-methyl-1,3-dihydrobenzo[c][1,2]oxaborole-6-carbonyl)-L-valinate] | < 0.5 nM | ≤ 20 nM |
| CNCc1cccc(COC(=O)[C@@H](NC(=O)c2ccc3c(c2C)B(O)OC3)C(C)C)c1 [Example 6-122, 3-((Methylamino)methyl)benzyl (1-hydroxy-7-methyl-1,3-dihydrobenzo[c][1,2]oxaborole-6-carbonyl)-L-valinate] | 10 to 5000 nM | ≥ 1000 nM |
| Cc1c(C(=O)N[C@H](C(=O)OCc2cnc3ccccc3n2)C(C)C)ccc2c1B(O)OC2 [Example 6-123, Quinoxalin-2-ylmethyl (1-hydroxy-7-methyl-1,3-dihydrobenzo[c][1,2]oxaborole-6-carbonyl)-L-valinate] | < 0.5 nM | ≤ 20 nM |
| Cc1c(C(=O)N[C@H](C(=O)OCc2nccs2)C(C)C)ccc2c1B(O)OC2 [Example 6-124, Thiazol-2-ylmethyl (1-hydroxy-7-methyl-1,3-dihydrobenzo[c][1,2]oxaborole-6-carbonyl)-L-valinate] | < 0.5 nM | 21 to 999 nM |
| Cc1c(C(=O)N[C@H](C(=O)OCc2ccc3ccccc3n2)C(C)C)ccc2c1B(O)OC2 [Example 6-125, Quinolin-2-ylmethyl (1-hydroxy-7-methyl-1,3-dihydrobenzo[c][1,2]oxaborole-6-carbonyl)-L-valinate] | < 0.5 nM | 21 to 999 nM |
| Cc1c(C(=O)N[C@H](C(=O)OCc2cccc(N3CCNCC3)c2)C(C)C)ccc2c1B(O)OC2 [Example 6-126, 3-(Piperazin-1-yl)benzyl (1-hydroxy-7-methyl-1,3-dihydrobenzo[c][1,2]oxaborole-6-carbonyl)-L-valinate] | 0.51 to 9.99 nM | ≥ 1000 nM |
| Cc1c(C(=O)N[C@H](C(=O)OCc2cscn2)C(C)C)ccc2c1B(O)OC2 [Example 6-128, Thiazol-4-ylmethyl (1-hydroxy-7-methyl-1,3-dihydrobenzo[c][1,2]oxaborole-6-carbonyl)-L-valinate] | < 0.5 nM | 21 to 999 nM |
| Cc1c(C(=O)N[C@H](C(=O)OCc2ccc(CN3CCOCC3)cc2)C(C)C)ccc2c1B(O)OC2 [Example 6-130, 4-(Morpholinomethyl)benzyl (1-hydroxy-7-methyl-1,3-dihydrobenzo[c][1,2]oxaborole-6-carbonyl)-L-valinate] | < 0.5 nM | 21 to 999 nM |

| Structure (SMILES) | IC50 [1] | IC50 [2] |
| --- | --- | --- |
| Cc1c(C(=O)N[C@H](C(=O)OCc2ccc(CN3CCCC3)cc2)C(C)C)ccc2c1B(O)OC2 [Example 6-131, 4-(Pyrrolidin-1-ylmethyl)benzyl (1-hydroxy-7-methyl-1,3-dihydrobenzo[c][1,2]oxaborole-6-carbonyl)-L-valinate] | < 0.5 nM | 21 to 999 nM |
| Cc1c(C(=O)N[C@H](C(=O)OC2CCCC2)C(C)C)ccc2c1B(O)OC2 [Example 6-132, Cyclopentyl (1-hydroxy-7-methyl-1,3-dihydrobenzo[c][1,2]oxaborole-6-carbonyl)-L-valinate] | < 0.5 nM | ≤ 20 nM |
| Cc1c(C(=O)N[C@H](C(=O)OC2CCCCC2)C(C)C)ccc2c1B(O)OC2 [Example 6-133, Cyclohexyl (1-hydroxy-7-methyl-1,3-dihydrobenzo[c][1,2]oxaborole-6-carbonyl)-L-valinate] | < 0.5 nM | ≤ 20 nM |
| Cc1c(C(=O)N[C@H](C(=O)OC2CCOCC2)C(C)C)ccc2c1B(O)OC2 [Example 6-134, Tetrahydro-2H-pyran-4-yl (1-hydroxy-7-methyl-1,3-dihydrobenzo[c][1,2]oxaborole-6-carbonyl)-L-valinate] | < 0.5 nM | ≤ 20 nM |
| Cc1c(C(=O)N[C@H](C(=O)OC2COC2)C(C)C)ccc2c1B(O)OC2 [Example 6-135, Oxetan-3-yl (1-hydroxy-7-methyl-1,3-dihydrobenzo[c][1,2]oxaborole-6-carbonyl)-L-valinate] | < 0.5 nM | 21 to 999 nM |
| Cc1c(C(=O)N[C@H](C(=O)OC2CCC2)C(C)C)ccc2c1B(O)OC2 [Example 6-136, Cyclobutyl (1-hydroxy-7-methyl-1,3-dihydrobenzo[c][1,2]oxaborole-6-carbonyl)-L-valinate] | < 0.5 nM | ≤ 20 nM |
| Cc1c(C(=O)N[C@H](C(=O)OCc2ncc3ccccc3n2)C(C)C)ccc2c1B(O)OC2 [Example 6-137, Quinazolin-2-ylmethyl (1-hydroxy-7-methyl-1,3-dihydrobenzo[c][1,2]oxaborole-6-carbonyl)-L-valinate] | < 0.5 nM | ≤ 20 nM |
| Cc1c(C(=O)N[C@H](C(=O)OCc2c[nH]cn2)C(C)C)ccc2c1B(O)OC2 [Example 6-138, (1H-Imidazol-4-yl)methyl (1-hydroxy-7-methyl-1,3-dihydrobenzo[c][1,2]oxaborole-6-carbonyl)-L-valinate] | 10 to 5000 nM | ≥ 1000 nM |
| COCC(COC)OC(=O)[C@@H](NC(=O)c1ccc2c(c1C)B(O)OC2)C(C)C [Example 6-139, 1,3-Dimethoxypropan-2-yl (1-hydroxy-7-methyl-1,3-dihydrobenzo[c][1,2]oxaborole-6-carbonyl)-L-valinate] | 10 to 5000 nM | 21 to 999 nM |
| Cc1c(C(=O)N[C@H](C(=O)O[C@H]2CCOC2)C(C)C)ccc2c1B(O)OC2 [Example 6-140, (S)-Tetrahydrofuran-3-yl (1-hydroxy-7-methyl-1,3-dihydrobenzo[c][1,2]oxaborole-6-carbonyl)-L-valinate] | 0.51 to 9.99 nM | 21 to 999 nM |
| Cc1c(C(=O)N[C@H](C(=O)O[C@@H]2CCOC2)C(C)C)ccc2c1B(O)OC2 [Example 6-141, (R)-Tetrahydrofuran-3-yl (1-hydroxy-7-methyl-1,3-dihydrobenzo[c][1,2]oxaborole-6-carbonyl)-L-valinate] | < 0.5 nM | 21 to 999 nM |
| Cc1c(C(=O)N[C@H](C(=O)OC2CCN(C)CC2)C(C)C)ccc2c1B(O)OC2 [Example 6-142, 1-Methylpiperidin-4-yl (1-hydroxy-7-methyl-1,3-dihydrobenzo[c][1,2]oxaborole-6-carbonyl)-L-valinate] | < 0.5 nM | 21 to 999 nM |
| Cc1c(C(=O)N[C@H](C(=O)OCc2ncc[nH]2)C(C)C)ccc2c1B(O)OC2 [Example 6-143, (1H-Imidazol-2-yl)methyl (1-hydroxy-7-methyl-1,3-dihydrobenzo[c][1,2]oxaborole-6-carbonyl)-L-valinate] | 10 to 5000 nM | ≥ 1000 nM |
| Cc1c(C(=O)N[C@H](C(=O)OC[C@H]2COC(C)(C)O2)C(C)C)ccc2c1B(O)OC2 [Example 6-144, ((R)-2,2-Dimethyl-1,3-dioxolan-4-yl)methyl (1-hydroxy-7-methyl-1,3-dihydrobenzo[c][1,2]oxaborole-6-carbonyl)-L-valinate] | 0.51 to 9.99 nM | ≤ 20 nM |
| Cc1c(C(=O)N[C@H](C(=O)OC[C@@H]2COC(C)(C)O2)C(C)C)ccc2c1B(O)OC2 [Example 6-145, ((S)-2,2-Dimethyl-1,3-dioxolan-4-yl)methyl (1-hydroxy-7-methyl-1,3-dihydrobenzo[c][1,2]oxaborole-6-carbonyl)-L-valinate] | 0.51 to 9.99 nM | ≤ 20 nM |
